± gives the expanded uncertainty stated by the source.
Test: xn = mol fraction of the nth substance listed
Settings: Gas, Oscillating disk viscometry

CCN(CC)CC [triethylamine] + CO
Settings	viscosity [mPa·s]
296.97 K, Mass density=2.1808 kg/m3, x2 = 0.4998	0.007913 ± 0.00034
297.25 K, Mass density=0.6964 kg/m3, x2 = 0.4996	0.007853 ± 0.00034
298.22 K, Mass density=1.2804 kg/m3, x2 = 0.3322	0.007476 ± 0.00033
298.82 K, Mass density=0.6964 kg/m3, x2 = 0.4996	0.007887 ± 0.00034
298.92 K, Mass density=1.1039 kg/m3, x2 = 0.4982	0.007914 ± 0.00034
299.02 K, Mass density=0.6482 kg/m3, x2 = 0.4999	0.007865 ± 0.00034
310.39 K, Mass density=0.6964 kg/m3, x2 = 0.4996	0.008055 ± 0.00036
310.51 K, Mass density=2.1808 kg/m3, x2 = 0.4998	0.008259 ± 0.00035
310.56 K, Mass density=0.6482 kg/m3, x2 = 0.4999	0.008025 ± 0.00034
310.62 K, Mass density=1.1039 kg/m3, x2 = 0.4982	0.008147 ± 0.00034
310.75 K, Mass density=1.5253 kg/m3, x2 = 0.5035	0.008235 ± 0.00035
311.73 K, Mass density=1.2804 kg/m3, x2 = 0.3322	0.007712 ± 0.00033
324.1 K, Mass density=2.1808 kg/m3, x2 = 0.4998	0.008539 ± 0.00035
324.27 K, Mass density=1.2804 kg/m3, x2 = 0.3322	0.007852 ± 0.00034
324.64 K, Mass density=0.6964 kg/m3, x2 = 0.4996	0.008338 ± 0.00035
325.29 K, Mass density=1.1039 kg/m3, x2 = 0.4982	0.008337 ± 0.00035
325.44 K, Mass density=0.6482 kg/m3, x2 = 0.4999	0.008367 ± 0.00035
326.59 K, Mass density=1.5253 kg/m3, x2 = 0.5035	0.008476 ± 0.00035
337.6 K, Mass density=1.2804 kg/m3, x2 = 0.3322	0.008072 ± 0.00034
338.04 K, Mass density=1.5253 kg/m3, x2 = 0.5035	0.008626 ± 0.00036
338.18 K, Mass density=0.6482 kg/m3, x2 = 0.4999	0.008693 ± 0.00036
338.18 K, Mass density=1.1039 kg/m3, x2 = 0.4982	0.008632 ± 0.00036
338.37 K, Mass density=0.6964 kg/m3, x2 = 0.4996	0.008695 ± 0.00036
338.58 K, Mass density=2.1808 kg/m3, x2 = 0.4998	0.00869 ± 0.00036
352.3 K, Mass density=0.6964 kg/m3, x2 = 0.4996	0.009039 ± 0.00036
352.47 K, Mass density=0.6482 kg/m3, x2 = 0.4999	0.009053 ± 0.00037
352.57 K, Mass density=1.1039 kg/m3, x2 = 0.4982	0.009009 ± 0.00036
352.83 K, Mass density=2.1808 kg/m3, x2 = 0.4998	0.008949 ± 0.00036
352.91 K, Mass density=1.2804 kg/m3, x2 = 0.3322	0.008441 ± 0.00035
353.02 K, Mass density=1.5253 kg/m3, x2 = 0.5035	0.009026 ± 0.00036
365.7 K, Mass density=2.1808 kg/m3, x2 = 0.4998	0.009281 ± 0.00038
365.96 K, Mass density=1.5253 kg/m3, x2 = 0.5035	0.009349 ± 0.00037
366.02 K, Mass density=1.2804 kg/m3, x2 = 0.3322	0.008766 ± 0.00036
366.12 K, Mass density=1.5253 kg/m3, x2 = 0.5035	0.009363 ± 0.00037
366.13 K, Mass density=0.6482 kg/m3, x2 = 0.4999	0.009411 ± 0.00038
366.22 K, Mass density=1.2804 kg/m3, x2 = 0.3322	0.008747 ± 0.00036
366.24 K, Mass density=0.6964 kg/m3, x2 = 0.4996	0.009388 ± 0.00037
366.29 K, Mass density=1.1039 kg/m3, x2 = 0.4982	0.009353 ± 0.00037
366.41 K, Mass density=2.1808 kg/m3, x2 = 0.4998	0.009307 ± 0.00038
366.96 K, Mass density=0.6482 kg/m3, x2 = 0.4999	0.009415 ± 0.00038
367.89 K, Mass density=1.1039 kg/m3, x2 = 0.4982	0.009381 ± 0.00037
379.75 K, Mass density=1.2804 kg/m3, x2 = 0.3322	0.009075 ± 0.00037
380.83 K, Mass density=2.1808 kg/m3, x2 = 0.4998	0.009681 ± 0.00038
381.57 K, Mass density=0.6482 kg/m3, x2 = 0.4999	0.009793 ± 0.00038
381.81 K, Mass density=1.5253 kg/m3, x2 = 0.5035	0.00977 ± 0.00038
381.91 K, Mass density=1.1039 kg/m3, x2 = 0.4982	0.009758 ± 0.00038
383.76 K, Mass density=0.6964 kg/m3, x2 = 0.4996	0.009828 ± 0.00039
394.29 K, Mass density=2.1808 kg/m3, x2 = 0.4998	0.01004 ± 0.00039
394.84 K, Mass density=1.5253 kg/m3, x2 = 0.5035	0.01009 ± 0.00039
394.95 K, Mass density=0.6964 kg/m3, x2 = 0.4996	0.0101 ± 0.00039
394.98 K, Mass density=1.2804 kg/m3, x2 = 0.3322	0.009437 ± 0.00037
395.04 K, Mass density=0.6482 kg/m3, x2 = 0.4999	0.01012 ± 0.00039
395.34 K, Mass density=1.1039 kg/m3, x2 = 0.4982	0.01008 ± 0.00039
408.74 K, Mass density=1.2804 kg/m3, x2 = 0.3322	0.009753 ± 0.00038
409.01 K, Mass density=1.1039 kg/m3, x2 = 0.4982	0.01044 ± 0.0004
409.18 K, Mass density=2.1808 kg/m3, x2 = 0.4998	0.01042 ± 0.0004
409.61 K, Mass density=0.6482 kg/m3, x2 = 0.4999	0.0105 ± 0.0004
410.61 K, Mass density=1.5253 kg/m3, x2 = 0.5035	0.0105 ± 0.0004
410.75 K, Mass density=0.6964 kg/m3, x2 = 0.4996	0.01052 ± 0.0004
422.83 K, Mass density=1.2804 kg/m3, x2 = 0.3322	0.01008 ± 0.00039
423.21 K, Mass density=1.5253 kg/m3, x2 = 0.5035	0.01081 ± 0.00041
423.31 K, Mass density=0.6964 kg/m3, x2 = 0.4996	0.01083 ± 0.00041
423.64 K, Mass density=2.1808 kg/m3, x2 = 0.4998	0.01078 ± 0.00041
423.81 K, Mass density=1.1039 kg/m3, x2 = 0.4982	0.01081 ± 0.00041
425.55 K, Mass density=0.6482 kg/m3, x2 = 0.4999	0.01091 ± 0.00041
436.79 K, Mass density=1.5253 kg/m3, x2 = 0.5035	0.01116 ± 0.00041
436.89 K, Mass density=2.1808 kg/m3, x2 = 0.4998	0.01111 ± 0.00041
436.91 K, Mass density=0.6964 kg/m3, x2 = 0.4996	0.01117 ± 0.00042
437.47 K, Mass density=1.1039 kg/m3, x2 = 0.4982	0.01116 ± 0.00041
438.27 K, Mass density=0.6482 kg/m3, x2 = 0.4999	0.01122 ± 0.00042
441.21 K, Mass density=1.2804 kg/m3, x2 = 0.3322	0.01053 ± 0.0004
451.54 K, Mass density=1.2804 kg/m3, x2 = 0.3322	0.01076 ± 0.0004
451.6 K, Mass density=1.5253 kg/m3, x2 = 0.5035	0.01154 ± 0.00042
451.74 K, Mass density=1.1039 kg/m3, x2 = 0.4982	0.01151 ± 0.00042
452.02 K, Mass density=2.1808 kg/m3, x2 = 0.4998	0.01151 ± 0.00042
452.69 K, Mass density=0.6964 kg/m3, x2 = 0.4996	0.01157 ± 0.00043
453.25 K, Mass density=0.6482 kg/m3, x2 = 0.4999	0.01161 ± 0.00043
466.65 K, Mass density=2.1808 kg/m3, x2 = 0.4998	0.01188 ± 0.00043
466.76 K, Mass density=1.5253 kg/m3, x2 = 0.5035	0.01191 ± 0.00043
467.26 K, Mass density=1.1039 kg/m3, x2 = 0.4982	0.0119 ± 0.00043
467.4 K, Mass density=1.2804 kg/m3, x2 = 0.3322	0.01113 ± 0.00041
467.62 K, Mass density=0.6482 kg/m3, x2 = 0.4999	0.01197 ± 0.00043
480.98 K, Mass density=1.2804 kg/m3, x2 = 0.3322	0.01145 ± 0.00042
481.28 K, Mass density=1.1039 kg/m3, x2 = 0.4982	0.01225 ± 0.00044
481.51 K, Mass density=2.1808 kg/m3, x2 = 0.4998	0.01224 ± 0.00044
481.53 K, Mass density=0.6964 kg/m3, x2 = 0.4996	0.01229 ± 0.00044
482.14 K, Mass density=0.6482 kg/m3, x2 = 0.4999	0.01231 ± 0.00044
482.73 K, Mass density=1.5253 kg/m3, x2 = 0.5035	0.01229 ± 0.00044
494.94 K, Mass density=0.6964 kg/m3, x2 = 0.4996	0.01263 ± 0.00045
495.26 K, Mass density=1.2804 kg/m3, x2 = 0.3322	0.01179 ± 0.00043
495.28 K, Mass density=2.1808 kg/m3, x2 = 0.4998	0.0126 ± 0.00045
495.78 K, Mass density=1.5253 kg/m3, x2 = 0.5035	0.01264 ± 0.00045
496.37 K, Mass density=0.6482 kg/m3, x2 = 0.4999	0.01269 ± 0.00045
497.66 K, Mass density=1.1039 kg/m3, x2 = 0.4982	0.01267 ± 0.00045

Reference: the NIST ThermoML archive (doi:10.1016/j.fluid.2011.01.013)
